# Experimental data reported in patent US8173840B2, “Compounds with high therapeutic index” (Signature R&D Holdings, LLC, priority 2003, dated 2012).
# Read-outs that look alike come from different tables or passages of the source.
# Tests used:
# [1] = test system: male albino mice (Swiss strain); assay: Acetylcholine induced abdominal constriction (writhe) method; assay type: in vivo, mouse; details: gavage
# Procedure: Ibuprofen (racemic mixture) and ibuprofen (S)-(+) served as reference controls.
# The study was conducted at two dose levels viz. 50 mg and 100 mg/kg body weight along with a vehicle control group. At each dose level 10 animals were used. All the doses were expressed as ibuprofen molar equivalents. The doses used as well as the molar equivalents are presented below.
# The efficacy in terms of antagonizing effect on acetylcholine induced single writhe at two dose levels—50.0 and 100.0 mg/kg for the three formulations and reference controls are presented below.
# Swiss Albino Mice [2] = assay: 28-day chronic toxicity study of ibuprofen esters; details: 28 days; for No of animals survived: 10 animals per group; for Average Change In body Weight / Percentage Change of body weight: surviving animals
# Swiss Albino Mice [3] = details: mouse, in vivo
# [4] = test system: Spontaneously Hypertensive Rats (SHRs); assay: Hemodynamics in Spontaneously Hypertensive Rats; assay type: in vivo, rat
# Procedure: ACE inhibitors have been known to be useful in antihypertensive therapy for many years. Some ACE inhibitors are delivered orally as the parent drug (captopril) while others are delivered as pro-drugs in order to obtain clinically useful plasma concentrations. This study provides data on the effect of these various enalapril derivatives on hemodynamics in SHRs when given orally and compared to enalapril.
# Briefly, SHRs fitted with right carotid catheters were orally gavaged with 100 mg/kg enalapril or equivalent does of the enalapril derivatives, and the blood pressures were followed continuously up to 3 hours and then a measurement at 24 hours. The animals were conscious throughout the procedure and were placed in a restrainer and hooked up to a pressure transducer and a signal processor. After 3 hours, the animals were placed back into their cage, and blood pressure was finally measured again at 24 hours.
# [5] = test system: albino mice (Swiss strain); assay: 14 day repeated dose toxicity study, intravenous route, propofol esters
# albino mouse = assay: Anesthetic effect in male albino mice, righting reflex as index
# [6] = Solubility of propofol and its amino acid esters in water; details: water, solubility in water
# human volunteers = assay: Analgesic and anti-inflammatory effects of S(+)Ibuprofen-L-Threonine Ester in human volunteers; assay type: in vivo
# Procedure: Determination of the analgesic and anti-inflammatory effects of S(+)Ibuprofen-L-Threonine Ester in three human volunteers was conducted as follows:
# Two male, age 49 and 50 having severe headache took 1 capsule containing S(+)Ibuprofen-L-Threonine Ester manufacturing and formulation under GMP conditions. The capsule contents were equivalent to 200 mg of racemic Ibuprofen. Relief from headache was reported after 15 min, and complete absence of any pain from headache was reported at the end of 1 hour, which lasted for another 12 hours.
# Two males age 49 and 51 took 1 capsule each containing S(+)IbuprofenL-Threonine ester for arthritic knee pain, which was perceptible. […] Such amolearation of pain was further sustained for another 24 hours.
# [7] = test system: fasted male albino rats (Wistar strain); assay: Gastric mucosal irritation potential of ibuprofen esters; assay type: in vivo, rat; details: two dose levels, 200 mg and 300 mg/kg
# Patient = assay: Human clinical trial of S(−)Ketorolac-L-Threonine ester (analgesic activity); assay type: in vivo; details: for analgesic activity and side effects (words): 13 mg twice daily, oral capsules, Hydrochloride
# Procedure: S(−)Ketorolac-L-Threonine ester capsules were filled using dextrose as the filler. […] For example, 13 mg of S(−)Ketorolac-L-Threonine ester was roughly equivalent to 13 mg of racemic Ketorolac tromethamine in tablet and/or capsule form.
# A patient suffering from severe ankolysing spodolytis, arthritis and other inflammatory joint problems was under treatment with Indomethacin, 25 mg twice daily dose. In order the evaluate the analgesic activity of S(−) Ketorolac-L-Threonine ester, the patient was withdrawn from Indomethacin. After 24 hours, the pain returned and they were administered with 13 mg of S(−) Ketorolac L-Threonine ester, once in the morning and once in the evening. This was repeated for 5 days.
# About 3 months later, the same above volunteer repeated the experiment. This time, after they went off the indomethacin, only one dose of 13 mg of S(−) Ketorolac-L-Threonine ester was administered. […] This treatment was continued for another 3 days of two capsules of 13 mg each. On the morning of the 6th day, they were switched back to Indomethacin.
# [8] = 50.0 mg/kg in terms of Ibuprofen
# [9] = 100.0 mg/kg in terms of Ibuprofen
# [10] = 1 capsule equivalent to 200 mg racemic Ibuprofen
compound,measurement,setting,value
"CC(C)Cc1ccc(C(C)C(=O)O)cc1 (racemic) [Ibuprofen (racemic mixture), reference compound]","Number of animals showing absence of single writhe (number of animals per dose = 10), One hour after dosing",[1]; [8],4
same,"Number of animals showing absence of single writhe (number of animals per dose = 10), Three hours after dosing",[1]; [8],2
same,"Number of animals showing absence of single writhe (number of animals per dose = 10), One hour after dosing",[1]; [9],6
same,"Number of animals showing absence of single writhe (number of animals per dose = 10), Three hours after dosing",[1]; [9],6
same,No of animals survived,Swiss Albino Mice [2],6
same,Average Change In body Weight,Swiss Albino Mice [2],2.97 gms
same,Percentage Change of body weight,Swiss Albino Mice [2],12.54%
same,animals that died,Swiss Albino Mice [3]; both,40%
same,Mortality,Swiss Albino Mice [3]; female,3/5
same,Mortality,Swiss Albino Mice [3]; male,1/5
CCOC(=O)[C@H](CCc1ccccc1)N[C@@H](C)C(=O)N1CCC[C@H]1C(=O)O [Enalapril],reduction of blood pressure,"[4]; 100 mg/kg oral gavage, at 3 hours and 24 hours",approximately 20%
same,arterial blood pressure,"[4]; oral, 100 mg/kg enalapril or equivalent doses",reduced arterial blood pressure
"CC(C)c1cccc(C(C)C)c1OC(=O)CN.Cl [Propofol Glycine Ester, Amino-acetic acid 2,6-diisopropyl-phenyl ester, hydrochloride]",feed intake,[5]; 14 days,normal and comparable to that of vehicle control group
same,"behavior, feed consumption, organ weights, histopathology of different organs","[5]; 14 days, vs reference group",normal and comparable to that of the animals of the reference group
same,animals exhibiting clinical symptoms of toxicity,[5]; IV daily 14 days,None of the animals
same,body weight gain,"[5]; IV daily 14 days, compared to vehicle control",reduced in both the sexes
same,MCV vs Propofol injection (RC) [p<0.05],[5]; female animals,significantly decreased
same,granulocytes counts vs Propofol injection (RC) [p<0.05],[5]; female animals,significantly increased
same,reduced body weight gain compared to vehicle control,"[5]; females, 14 days",26.94%
same,reduced body weight gain compared to vehicle control,"[5]; males, 14 days",25.87%
same,"anesthetic effect, relative efficacy",albino mouse; High Dose,more effective
same,"anesthetic effect, relative efficacy",albino mouse; Low Dose,more effective
same,efficacy in inducing anesthesia based on time required to regain the righting reflex (conclusion),albino mouse; albino mice,relatively better efficacy
same,dose response relation (statistical analysis),"albino mouse; low, intermediate, high dose",not statistically evident
same,solubility,[6],> 100 mg/mL
"CC(C)Cc1ccc([C@H](C)C(=O)O[C@H](C)[C@H](N)C(=O)O)cc1.Cl [S-(+)-Ibuprofen-L-threonine ester, 2(S)-Amino-3(R)-[2(S)-(4-isobutyl-phenyl)-propionyloxy]-butyric acid]","Number of animals showing absence of single writhe (number of animals per dose = 10), One hour after dosing",[1]; [8],1
same,"Number of animals showing absence of single writhe (number of animals per dose = 10), Three hours after dosing",[1]; [8],0
same,"Number of animals showing absence of single writhe (number of animals per dose = 10), One hour after dosing",[1]; [9],3
same,"Number of animals showing absence of single writhe (number of animals per dose = 10), Three hours after dosing",[1]; [9],0
same,No of animals survived,Swiss Albino Mice [2],10
same,animals that died,Swiss Albino Mice [2]; both sexes,none of the animals
same,Mortality,Swiss Albino Mice [2]; Female,Nil
same,Mortality,Swiss Albino Mice [2]; Male,Nil
same,Average Change In body Weight,Swiss Albino Mice [2],−0.68 gms
same,Percentage Change of body weight,Swiss Albino Mice [2],−3.61%
same,amelioration of knee pain sustained for another,human volunteers; 1 capsule,24 h
same,absence of headache pain lasted for another,human volunteers; [10],12 h
same,complete absence of any pain from headache reported at the end of,human volunteers; [10],1 h
same,relief from headache reported after,"human volunteers; 1 capsule equivalent to 200 mg racemic Ibuprofen, two males with severe headache",15 min
same,arthritic knee pain,"human volunteers; 1 capsule, two males, after 12 hours",significant reduction is the pain associated with their right knee
same,irritation of gastric mucosa,[7],significantly and completely non-toxic to GI mucosa in the rats tested
"S(−)-Ketorolac L-Threonine Ester, Hydrochloride [S(−) Ketorolac L-Threonine ester]",analgesic activity and side effects (words),Patient,"lack of pain, no gastric irritation symptoms, or other side effects"
same,analgesic activity and side effects (words),Patient; listed as S(−) Ketorolac-L-Threonine ester,lack of any pain
same,analgesic activity,"Patient; only one dose of 13 mg daily, after the 2nd day",complained of the pain resurfacing
